Reference: patent US20230158116A1, “USE OF HUMAN AMYLIN ANALOG POLYPEPTIDES FOR PROVIDING SUPERIOR GLYCEMIC CONTROL TO TYPE 1 DIABETICS” (I2O Therapeutics, Inc., priority 2020, published 2023)
Where two headings read alike, the source gives them in different places. Blank lines part the entries; values can stand above or below the compound they belong to. Starred links: 1 amine or outer side, 2 acyl side, 3 side chain; linkers in the order of their positions; H or OH if unused. Positions of bridges follow the written chain, without caps; N, C: chain ends. Residues, ends and D or L forms follow the SMILES beside them. Groups on a side chain read outwards from the residue. No end group written: not given here. *: point of attachment. C20 diacid = O=C(O)CCCCCCCCCCCCCCCCCCC(=O)*; γGlu = O=C(O)[C@H](CCC(=O)[*:2])N[*:1]

Experiments:
[1] = assay type: in vivo, rat (male Wistar); parameters: hypo avoidance index (benefit index; below 70 mg/dL weighted 5× vs over 180 mg/dL): scale not given here; hazard index: time above 180 mg/dL (hyperglycemic) / benefit index: time in range (above 70, below 180 mg/dL): unit not given here; conditions: for benefit index: time in range (above 70, below 180 mg/dL) / hazard index: time above 180 mg/dL (hyperglycemic) / hypo avoidance index (benefit index; below 70 mg/dL weighted 5× vs over 180 mg/dL): STZ rat, A2 0 μg/kg/day
Description: Male Wistar rats are implanted intraperitoneally (sensor in abdominal aorta) with an HD-XG continuous glucose monitor (Data Sciences, St Paul, Minn.) (Brockway, Tiesma et al. 2015). This system allows up to 8 weeks of continuous capture of blood glucose concentrations.
Upon recovery from surgery and resumption of normal food intake, capture of glucose readings begins so as to include at least 4 days of non-diabetic record for each rat. To induce insulinopenic (type 1) diabetes, rats are fasted overnight and administered an intravenous dose of streptozotocin (STZ) of 60 mg/kg (Gajdosik, Gajdosikova et al. 1999). Glucose readings from the telemetry system are used to enhance survival post-STZ, by s.c. glucose supplementation in the event of hypoglycemia that often accompanies an initial release of insulin following β-cell toxicity. The telemetry is then used to affirm hyperglycemia (mean plasma glucose >300 mg/dL), and to determine if a second STZ treatment is necessary for rats that are not sufficiently hyperglycemic.
Upon becoming hyperglycemic, animals are treated daily with a sliding-scale of a long-acting insulin (insulin detemir, Levemir NOVO) so as to eliminate urinary ketones, but maintain 5% glycosuria, as determined by daily KETOSTIX and GLUCOSTIX testing, respectively (Young, Crocker et al. 1991).
Animals are assigned to one of 3 cohorts of insulin dosing (n=5/cohort). One cohort is defined as that necessary to attain −ve urinary ketones and +ve urinary glucose, as just described, but not greater than a total dose of 2 U/day. A second cohort is a high insulin dose cohort, 3× greater than cohort 1. A third cohort is one where insulin dose is 50% of that of cohort 1.
(§1) Following at least 1 week of insulin dose stabilization, animals are entered into each of 5 supplemental treatments comprising administration of the long-acting amylin agonist, compound A2, at doses of 1, 3, 10, 30 or 100 μg/day as a single daily injection, in addition to the fixed daily Levemir dose. (Alternatively, these studies could utilize relatively short-acting pramlintide as an amylin analog.) The […] is 32-37 hours in the rat, similar to that of albumin-bound insulin detemir. Daily dosing of each therefore maintains relatively constant concentrations of each, and a relatively ratio of concentrations.
Each dose level of compound A2 is maintained for 1 week, during which glucose data is captured via telemetry. The order in which doses of compound A2 are changed is determined by a 5×5 orthogonal latin square. That is, each animal receives each dose of compound A2, but in an order that is unique relative to that of the other 4 animals in the same insulin cohort. This treatment balances out time-dependent or order-dependent changes in metabolic status of each animal, such as regeneration of insulin secretory capacity, and accommodation to the effects of an amylin agonist.
Plasma glucose values from the final 4 days of each insulin/A2 combination are aggregated and analyzed according to frequency of occurrence (cumulative distributions). Analogous to the time-in-range (TIR) assessment of clinical benefit (sometimes termed “clinical utility”) in human diabetes trials (Beck, Bergenstal et al. 2018), glucose values are categorized within bins (<70, 70-180, and >180 mg/dL). Further cuts (>250 mg/dL) are also made. Parametric descriptors of glucose values are also derived for each combination (mean and SD values, linear and logarithmic, where data are not normal but are log-normal).
Higher benefit (i.e., utility) is indicated when TIR is greatest, with the proviso that values below 70 mg/dL are not more frequent. Higher benefit is also indicated when the SD for the distribution of glucose values is least.

[2] = cited from earlier work
[3] = in vivo; cited from earlier work
[4] = cited from earlier work; remark: listed apart in the source
[5] = Half-life of compound A2 in the rat; conditions: in vivo, read-out: 0% of compound A2 (half-life)
Method: as §1

Compound: insulin detemir [Novo's Levemir ® (insulin detemir)]
benefit index: time in range (above 70, below 180 mg/dL) ([1]; insulin 1 U/day): 39.5
hazard index: time above 180 mg/dL (hyperglycemic) ([1]; insulin 1 U/day): 60.2
hypo avoidance index (benefit index; below 70 mg/dL weighted 5× vs over 180 mg/dL) ([1]; insulin 1 U/day): 33.8
benefit index: time in range (above 70, below 180 mg/dL) ([1]; insulin 2 U/day): 64.9
hazard index: time above 180 mg/dL (hyperglycemic) ([1]; insulin 2 U/day): 29.4
hypo avoidance index (benefit index; below 70 mg/dL weighted 5× vs over 180 mg/dL) ([1]; insulin 2 U/day): 41.6
benefit index: time in range (above 70, below 180 mg/dL) ([1]; insulin 6 U/day): 78.9
hazard index: time above 180 mg/dL (hyperglycemic) ([1]; insulin 6 U/day): 2.8
hypo avoidance index (benefit index; below 70 mg/dL weighted 5× vs over 180 mg/dL) ([1]; insulin 6 U/day): 5.7
blood glucose values within range 70-180 mg/dL (TIR) ([1]; post-STZ rats, 2 U/day Levemir, no A2): 64.9%
blood glucose values <70 mg/dL ([1]; rat, in vivo): 5.8%
proportion of time spent below 70 mg/dL ([1]; rat, in vivo): markedly increase
Duration ([2]; in vivo): Up to 24 hours
Onset ([2]; in vivo): 60 to 120 min
Peak ([2]; in vivo): 6 to 8 h

Compound: insulin degludec [Novo's Tresiba ® (insulin degludec)]
Duration ([2]; in vivo): 42 h
Onset ([2]; in vivo): 30 to 90 min
Peak ([2]; result in words): No peak time

Compound: glulisine [Sanofi's Apidra ® (glulisine)]
Onset ([2]; in vivo): 20 to 30 min
Peak ([2]; in vivo): 0.5 to 1.5 h

Compound: aspart [Fiasp ® (aspart)]
Duration ([2]; in vivo): 3 to 5 h
Peak ([2]; in vivo): 1 to 3 h
Onset, sooner than Rapid Acting Insulins ([2]; relative to rapid-acting insulins): about 5 mins

Compound: aspart [Novo's Novolog ® (aspart)]
Duration ([2]; in vivo): 3 to 5 h
Onset ([2]; in vivo): 10 to 20 min
Peak ([2]; in vivo): 0.667 to 0.833 h

Compound: Davalintide
half-life [3]: about 26 minutes

Compound: lispro [Lilly's Humalog ® (lispro)]
Duration ([2]; in vivo): 3 to 5 h
Onset ([2]; in vivo): 15 to 30 min
Peak ([2]; in vivo): 0.5 to 1.5 h

Compound: human amylin: 37-residue polypeptide hormone co-secreted with insulin from pancreatic β-cells (SEQ ID NO: 5) (KCNTATCATQRLANFLVHSSNNFGAILSSTNVGSNTY; disulfide 2-7; listed as Homo sapiens)
half-life ([4]; in humans): about 13 minutes
half-life in serum ([4]; serum): about 13 minutes

Compound: insulin glargine
Duration ([2]; in vivo): 20 to 24 h
Peak ([2]; result in words): No peak time.

Compound: velosulin: human insulin for use in an insulin pump, short-acting
Duration ([2]; in vivo): 2 to 3 h
Peak ([2]; in vivo): 1 to 2 h

half-life [5]: 32 to 37 h
Compound: CC[C@H](C)[C@H](NC(=O)[C@@H]1CCCN1C(=O)CNC(=O)[C@H](Cc1ccccc1)NC(=O)[C@H](CC(N)=O)NC(=O)[C@H](CC(N)=O)NC(=O)[C@H](CO)NC(=O)[C@H](CO)NC(=O)[C@H](CCCCN)NC(=O)[C@H](Cc1c[nH]cn1)NC(=O)[C@H](CC(C)C)NC(=O)[C@H](CCC(=O)O)NC(=O)[C@H](CC(N)=O)NC(=O)[C@H](C)NC(=O)[C@H](CC(C)C)NC(=O)[C@H](CCCNC(=N)N)NC(=O)[C@H](CCC(N)=O)NC(=O)[C@@H](NC(=O)[C@H](C)NC(=O)[C@@H]1CSSC[C@H](NC(=O)[C@@H](N)CCCCNC(=O)CC[C@H](NC(=O)CC[C@H](NC(=O)CCCCCCCCCCCCCCCCCCC(=O)O)C(=O)O)C(=O)O)C(=O)N[C@@H](CC(N)=O)C(=O)N[C@@H]([C@@H](C)O)C(=O)N[C@@H](CO)C(=O)N[C@@H]([C@@H](C)O)C(=O)N1)[C@@H](C)O)C(=O)N[C@@H](CC(C)C)C(=O)N1CCC[C@H]1C(=O)N1CCC[C@H]1C(=O)N[C@H](C(=O)N[C@@H](CCCCN)C(=O)N[C@H](C(=O)NCC(=O)N[C@@H](CO)C(=O)N[C@@H](CCC(=O)O)C(=O)N[C@H](C(=O)N[C@@H](Cc1ccc(O)cc1)C(N)=O)[C@@H](C)O)C(C)C)[C@@H](C)O [Compound A2] (H-K([γGlu-γGlu-C20 diacid])CNTSTCATQRLANELHKSSNNFGPILPPTKVGSETY-NH2; disulfide 2-7)

Compound: recombinant insulin [Novo's Novolin ® (recombinant insulin)]
Duration ([2]; in vivo): 5 to 8 h
Peak ([2]; in vivo): 2 to 5 h
